Series [1] is described as follows: Carbamazepine and carbamazepine-10,11 epoxide concentrations in saliva of patients treated with carbamazepine (UHPLC-DAD after deproteinization). The format is in vivo, human. The method, then:
The chromatographic analysis was performed with a Nexer XR UHPLC (Ultra High Performance Liquid Chromatography) liquid chromatograph (Schimadzu, Kyoto, Japan), equipped with a SPD-M30A UV-Vis detector with a diode array and a highly sensitive measuring cell SPD-M30A (85 mm), CBM-20 Alite control system, LC-30AD pump, SIL-30AC autosampler, and CTO-20AC thermostat (Shimadzu, Kyoto, Japan). The compounds were separated using a Luna Omega 1.6 µm Polar C18 (LC Column 50 × 2.1 mm ID) with pre-columns (UHPLC Fully Porous Polar C18, 2.1 mm ID). The compounds were eluted from the column at 35 °C with a mobile phase consisting of water with added formic acid and triethylamine (TEA) (solvent A, pH 4.2) and acetonitrile (solvent B) at a flow of 1 mL/min.
The saliva samples were thawed, centrifuged, and then 200 μL of test material was collected and placed in plastic tubes. A 1% formic acid solution in acetonitrile (600 µL) was added to each of them, mixed with a vortex, shaken (laboratory shaker 358 S, Elpin, Poland) for about 10 min, and centrifuged for 5 min at 8000 rpm. The supernatant was transferred to glass tubes and evaporated. The dry residue was dissolved in 100 μL of an acetonitrile/water mixture with formic acid (1:10), and 10 μL was injected into the chromatographic column.
The usefulness of the method was determined by examining the saliva samples of 20 patients treated with carbamazepine preparations. They were collected from patients of the Nervous and Mentally Ill Hospital in Starogard Gdański (Poland). The study protocol was approved by the ethical committee of the Medical University of Gdansk, Poland (NKBBN/139/2016). Saliva was taken using Salivettes about 2 h after the administration of carbamazepine. The Salivette was placed in a test tube and centrifuged, and the obtained filtrate was frozen at −21 °C and stored until analysis. To perform the analyses, the samples were thawed, centrifuged, and 200 μL of liquid taken. Then, 50 μL of IS solution (10 μg/mL) was added and the procedure described in Section 2.4 was followed.

Series [2] can be described thus: Stability of analytes in spiked saliva, freeze–thaw test at −21 °C. The format is in vitro ADME, human. Particulars: freeze–thaw cycles at −21 °C. The method, then:
The stability of the analytes was tested for three concentrations (low QC, medium QC, and high QC). The stability of the analytes was determined both in the matrix during storage at 8 °C and in a freeze–thaw test, during which spiked saliva samples were stored at −21 °C. For each concentration of carbamazepine and metabolite, three 800 μL saliva samples were prepared in plastic tubes, spiked with an appropriate volume of analytes, and mixed. Then, 200 μL of saliva was taken from each sample, IS added, extracted, and chromatographed according to the procedures described in Section 2.4 and Section 2.5. The remainder of the sample was placed back in the refrigerator or frozen and analyzed in the following days.
(§1) The compounds whose concentration decreased by less than 15% under the given storage conditions were considered to be stable.

A short description of series [3]: Stability of analytes in spiked saliva stored in a fridge at 8 °C. The format is in vitro ADME, human. Particulars: for stability under the tested conditions: saliva at 8 °C, freeze–thaw at −21 °C, autosampler 15 °C 72 h, 30, 2000, 3750 ng/mL, stable = decrease less than 15%; for Difference (%): spiked saliva stored in a fridge at 8 °C. The method, then: The stability of the analytes was tested for three concentrations (low QC, medium QC, and high QC). The stability of the analytes was determined both in the matrix during storage at 8 °C and in a freeze–thaw test, during which spiked saliva samples were stored at −21 °C. […] The remainder of the sample was placed back in the refrigerator or frozen and analyzed in the following days. The compounds whose concentration decreased by less than 15% under the given storage conditions were considered to be stable.

The nature of series [4]: Stability of extracts kept in the autosampler at 15 °C for 72 h. The format is physicochemical. Particulars: extracts in autosampler at 15 °C for 72 h. The method, then:
The stability of the analytes was also determined during their storage in an autosampler at 15 °C for 72 h. For this purpose, five samples of each concentration were extracted and chromatographed. After 72 h, the samples were then chromatographed again alongside a freshly prepared calibration curve.
as §1

On the set-up of series [5]: method as in PMID 29403934, PMID 23288091, PMID 29957667. Particulars: cited from earlier work.

Where “and” joins values, the source holds several entries; their conditions need not be identical. Equal values may be shown once.

For `NC(=O)N1c2ccccc2C2OC2c2ccccc21` (centres unmarked) [Carbamazepine-10,11 epoxide, carbamazepine-10,11 epoxide], the “mean concentration in saliva” value is on record as 249 ng/mL in series [1] (female, human, in vivo) and 299 ng/mL in series [1] (male, human, in vivo). Further, the “determined concentrations in patient saliva, range” value in series [1] (human, in vivo) fell in the range of 120 to 664 ng/mL. The “Difference (%)” value was −2.45% in series [2] (30 ng/mL); −1.92% in series [2] (2000 ng/mL); −0.48% in series [2] (3750 ng/mL); −6.23% in series [3] (30 ng/mL); −3.56% in series [3] (2000 ng/mL); −2.75% in series [3] (3750 ng/mL). The “Difference (%)” value in series [4] (30 ng/mL) is −3.64%; in series [4] (2000 ng/mL), −2.3%; in series [4] (3750 ng/mL), 0.38%. The compound further registered a highest concentration reduction in series [3] (30 ng/mL in saliva samples stored at 8 °C) of 6%. In addition, the “stability under the tested conditions” value in series [3] is “stable”.
As to `NC(=O)N1c2ccccc2C=Cc2ccccc21` [Carbamazepine, carbamazepine], the “mean concentration in saliva” value was 967 ng/mL in series [1] (female patients) and 1882 ng/mL in series [1] (male patients). The “Carbamazepine Concentration” value in series [1] (saliva of individual patients, about 2 h after administration of carbamazepine, dose 400-1800 mg/day) was 344.7 ng/mL and 690.7 ng/mL and 1285.1 ng/mL and 464.0 ng/mL and 282.2 ng/mL and 472.9 ng/mL and 2456.8 ng/mL and 1668.1 ng/mL and 613.5 ng/mL and 784.3 ng/mL and 1119.9 ng/mL and 607.6 ng/mL and 1198.2 ng/mL and 1192.3 ng/mL and 1817.8 ng/mL and 4891.0 ng/mL and 4839.8 ng/mL and 1165.7 ng/mL and 262.2 ng/mL and 2334.2 ng/mL. Also, the “Difference (%)” value is given as −2.25% in series [2] (30 ng/mL); −2.16% in series [2] (2000 ng/mL); −1.44% in series [2] (3750 ng/mL); −3.91% in series [3] (30 ng/mL); −2.53% in series [3] (2000 ng/mL); −1.93% in series [3] (3750 ng/mL). Further, the “Difference (%)” value is reported as −0.30% in series [4] (30 ng/mL), −1.12% in series [4] (2000 ng/mL) and −1.72% in series [4] (3750 ng/mL). Besides, the “stability under the tested conditions” value in series [3] is “stable”. Further, the half-life in series [5] (after a single administration) was 36 h. Besides, the “excreted in the urine” value in series [5] is 72%.

Source of the values: article PMC7230990, “Deproteinization as a Rapid Method of Saliva Purification for the Determination of Carbamazepine and Carbamazepine-10,11 Epoxide” (Journal of Clinical Medicine, 2020).
